Counter-ions that a name gives are not always drawn.
Experiments:
Format in all cases: functional, Artery
Rattus norvegicus [1] = test: Average change in mean arterial blood pressure (mmHg) observed at 4 hr after oral administration at a dose of 14 mg/kg in female Sprague-Dawley rats
Rattus norvegicus [2] = test: Average change in mean arterial blood pressure (mmHg) observed at 4 hr after oral administration at a dose of 5 mg/kg in female Sprague-Dawley rats
Rattus norvegicus [3] = test: Average change in mean arterial blood pressure (mmHg) observed at 4 hr after oral administration at a dose of 50 mg/kg in female Sprague-Dawley rats
Rattus norvegicus [4] = test: Average change in mean arterial blood pressure (mmHg) observed at 4 hr after oral administration at a dose of 0.15 mg/kg in female Sprague-Dawley rats

`Cc1cc(N2CCOCC2)nc(N)[n+]1OS(=O)(=O)[O-]` was tested, and the Delta blood pressure (Rattus norvegicus [1]) was -37 mmHg.
`C=CCN(CC=C)c1nc(N)[n+](OS(=O)(=O)[O-])c(N)n1` was tested, and the Delta blood pressure (Rattus norvegicus [2]) was -21 mmHg.
Molecule `CNc1cc(N)[n+](OS(=O)(=O)[O-])c(N)n1` has a Delta blood pressure (Rattus norvegicus [3]) of -8 mmHg.
`Cc1cc(N2CCCC2)nc(N)[n+]1OS(=O)(=O)[O-]` was tested, and the Delta blood pressure (Rattus norvegicus [3]) was -39 mmHg.
With `Nc1cc(N2CCCCC2)nc(N)[n+]1OS(=O)(=O)[O-]` [MINOXIDIL SULFATE] the Delta blood pressure (Rattus norvegicus [4]) was -16 mmHg.

Reference: ChEMBL document CHEMBL1122505, “Pyrimidine and triazine 3-oxide sulfates: a new family of vasodilators” (1983)
